Assay results as given in the NIST ThermoML archive (doi:10.1021/je1000796).

Assay: mn = molality of the nth substance listed, in mol/kg
Details: 101 kPa, Liquid; for viscosity: Capillary tube (Ostwald / Ubbelohde) method

COC(=O)[C@H](c1ccccc1Cl)N1CCc2sccc2C1.O=S(=O)(O)O [(S)-(+)-Clopidogrel hydrogen sulfate] + CCO
Details | mass density [kg/m3] | viscosity [mPa·s]
278.15 K, m1 = 0.001 | 801 | 1.632
278.15 K, m1 = 0.003 | 801.6 | 1.638
278.15 K, m1 = 0.005 | 802.3 | 1.645
278.15 K, m1 = 0.007 | 802.9 | 1.665
278.15 K, m1 = 0.009 | 803.5 | 1.671
278.15 K, m1 = 0.011 | 803.9 | 1.674
278.15 K, m1 = 0.013 | 804.5 | 1.68
278.15 K, m1 = 0.015 | 805 | 1.687
283.15 K, m1 = 0.001 | 798 | 1.476
283.15 K, m1 = 0.003 | 798.4 | 1.484
283.15 K, m1 = 0.005 | 798.9 | 1.489
283.15 K, m1 = 0.007 | 799.3 | 1.502
283.15 K, m1 = 0.009 | 799.8 | 1.505
283.15 K, m1 = 0.011 | 800.1 | 1.508
283.15 K, m1 = 0.013 | 800.6 | 1.514
283.15 K, m1 = 0.015 | 800.9 | 1.523
288.15 K, m1 = 0.001 | 794.2 | 1.335
288.15 K, m1 = 0.003 | 794.5 | 1.343
288.15 K, m1 = 0.005 | 794.9 | 1.346
288.15 K, m1 = 0.007 | 795.4 | 1.359
288.15 K, m1 = 0.009 | 795.9 | 1.36
288.15 K, m1 = 0.011 | 796.2 | 1.361
288.15 K, m1 = 0.013 | 796.5 | 1.365
288.15 K, m1 = 0.015 | 796.8 | 1.373
293.15 K, m1 = 0.001 | 790.4 | 1.211
293.15 K, m1 = 0.003 | 790.8 | 1.214
293.15 K, m1 = 0.005 | 791 | 1.223
293.15 K, m1 = 0.007 | 791.4 | 1.235
293.15 K, m1 = 0.009 | 791.8 | 1.236
293.15 K, m1 = 0.011 | 792.2 | 1.238
293.15 K, m1 = 0.013 | 792.8 | 1.243
293.15 K, m1 = 0.015 | 793 | 1.25
298.15 K, m1 = 0.001 | 786.1 | 1.101
298.15 K, m1 = 0.003 | 786.6 | 1.103
298.15 K, m1 = 0.005 | 786.9 | 1.109
298.15 K, m1 = 0.007 | 787.2 | 1.12
298.15 K, m1 = 0.009 | 787.7 | 1.121
298.15 K, m1 = 0.011 | 788 | 1.123
298.15 K, m1 = 0.013 | 788.4 | 1.126
298.15 K, m1 = 0.015 | 788.7 | 1.131
303.15 K, m1 = 0.001 | 781.2 | 0.9985
303.15 K, m1 = 0.003 | 781.8 | 1.003
303.15 K, m1 = 0.005 | 782.1 | 1.006
303.15 K, m1 = 0.007 | 782.5 | 1.012
303.15 K, m1 = 0.009 | 782.9 | 1.015
303.15 K, m1 = 0.011 | 783.2 | 1.017
303.15 K, m1 = 0.013 | 783.4 | 1.019
303.15 K, m1 = 0.015 | 783.9 | 1.023
308.15 K, m1 = 0.001 | 778.2 | 0.9134
308.15 K, m1 = 0.003 | 778.5 | 0.9149
308.15 K, m1 = 0.005 | 778.7 | 0.9166
308.15 K, m1 = 0.007 | 778.9 | 0.9224
308.15 K, m1 = 0.009 | 779.1 | 0.9236
308.15 K, m1 = 0.011 | 779.4 | 0.9256
308.15 K, m1 = 0.013 | 779.8 | 0.928
308.15 K, m1 = 0.015 | 780.2 | 0.9307
313.15 K, m1 = 0.001 | 773.7 | 0.8328
313.15 K, m1 = 0.003 | 773.9 | 0.8348
313.15 K, m1 = 0.005 | 774.2 | 0.8359
313.15 K, m1 = 0.007 | 774.5 | 0.8409
313.15 K, m1 = 0.009 | 774.8 | 0.8441
313.15 K, m1 = 0.011 | 775.2 | 0.8458
313.15 K, m1 = 0.013 | 775.7 | 0.8473
313.15 K, m1 = 0.015 | 776 | 0.8496

COC(=O)[C@H](c1ccccc1Cl)N1CCc2sccc2C1.O=S(=O)(O)O [(S)-(+)-Clopidogrel hydrogen sulfate] + CO
Details | mass density [kg/m3] | viscosity [mPa·s]
278.15 K, m1 = 0.001 | 803.1 | 0.7441
278.15 K, m1 = 0.003 | 803.5 | 0.747
278.15 K, m1 = 0.005 | 804 | 0.7487
278.15 K, m1 = 0.007 | 804.4 | 0.7505
278.15 K, m1 = 0.009 | 804.8 | 0.7525
278.15 K, m1 = 0.011 | 805.2 | 0.7529
278.15 K, m1 = 0.013 | 805.9 | 0.7577
278.15 K, m1 = 0.015 | 806.4 | 0.7582
283.15 K, m1 = 0.001 | 799.2 | 0.6924
283.15 K, m1 = 0.003 | 799.5 | 0.6943
283.15 K, m1 = 0.005 | 800.1 | 0.6961
283.15 K, m1 = 0.007 | 800.4 | 0.698
283.15 K, m1 = 0.009 | 801.1 | 0.6998
283.15 K, m1 = 0.011 | 801.5 | 0.7006
283.15 K, m1 = 0.013 | 802 | 0.7039
283.15 K, m1 = 0.015 | 802.6 | 0.705
288.15 K, m1 = 0.001 | 795.4 | 0.6416
288.15 K, m1 = 0.003 | 795.8 | 0.6446
288.15 K, m1 = 0.005 | 796.2 | 0.6475
288.15 K, m1 = 0.007 | 796.4 | 0.6487
288.15 K, m1 = 0.009 | 797.1 | 0.6494
288.15 K, m1 = 0.011 | 797.5 | 0.6502
288.15 K, m1 = 0.013 | 798.2 | 0.6527
288.15 K, m1 = 0.015 | 799 | 0.6538
293.15 K, m1 = 0.001 | 792.3 | 0.6006
293.15 K, m1 = 0.003 | 792.5 | 0.6022
293.15 K, m1 = 0.005 | 792.9 | 0.6042
293.15 K, m1 = 0.007 | 793.3 | 0.6049
293.15 K, m1 = 0.009 | 793.6 | 0.606
293.15 K, m1 = 0.011 | 794 | 0.6077
293.15 K, m1 = 0.013 | 794.5 | 0.6096
293.15 K, m1 = 0.015 | 795.3 | 0.6111
298.15 K, m1 = 0.001 | 788.1 | 0.5596
298.15 K, m1 = 0.003 | 788.2 | 0.562
298.15 K, m1 = 0.005 | 788.4 | 0.5631
298.15 K, m1 = 0.007 | 788.7 | 0.5638
298.15 K, m1 = 0.009 | 789 | 0.5652
298.15 K, m1 = 0.011 | 789.3 | 0.5661
298.15 K, m1 = 0.013 | 790 | 0.5684
298.15 K, m1 = 0.015 | 790.8 | 0.5694
303.15 K, m1 = 0.001 | 784 | 0.5212
303.15 K, m1 = 0.003 | 784.1 | 0.5236
303.15 K, m1 = 0.005 | 784.3 | 0.5254
303.15 K, m1 = 0.007 | 784.5 | 0.5262
303.15 K, m1 = 0.009 | 785 | 0.5269
303.15 K, m1 = 0.011 | 785.3 | 0.5276
303.15 K, m1 = 0.013 | 785.8 | 0.5304
303.15 K, m1 = 0.015 | 786.6 | 0.5315
308.15 K, m1 = 0.001 | 779.7 | 0.487
308.15 K, m1 = 0.003 | 779.8 | 0.4898
308.15 K, m1 = 0.005 | 780 | 0.4901
308.15 K, m1 = 0.007 | 780.3 | 0.4906
308.15 K, m1 = 0.009 | 780.7 | 0.4919
308.15 K, m1 = 0.011 | 781.1 | 0.4936
308.15 K, m1 = 0.013 | 781.5 | 0.4943
308.15 K, m1 = 0.015 | 782.3 | 0.4967
313.15 K, m1 = 0.001 | 775.3 | 0.4567
313.15 K, m1 = 0.003 | 775.5 | 0.4589
313.15 K, m1 = 0.005 | 775.7 | 0.4595
313.15 K, m1 = 0.007 | 775.9 | 0.4601
313.15 K, m1 = 0.009 | 776 | 0.4604
313.15 K, m1 = 0.011 | 776.4 | 0.462
313.15 K, m1 = 0.013 | 777 | 0.4631
313.15 K, m1 = 0.015 | 777.8 | 0.4647
